Assay results from US20240050513A1, “COMPOSITION FOR PREVENTING, AMELIORATING, OR TREATING DISEASE CAUSED BY PROTEIN NITRATION […] WITH TERMINAL TYROSINE AS EFFECTIVE COMPONENT” (INDUSTRY-ACADEMIC COOPERATION FOUNDATION GYEONGSANG …, priority 2021, published 2024).
Like-named read-outs stand apart in the source and are kept apart here.

Assays:
[1] = system: glutamine synthetase (GS); experiment: GS activity and GS tyrosine nitration in PFC, chronic immobilization stress model; assay type: in vivo, C57BL/6 mice; settings: stress group
Procedure: Using the prefrontal cortex (PFC) lysate samples from mice obtained after the completion of chronic immobilization stress, GS activity and GS expression level were measured by following the method described above.
Furthermore, the level of tyrosine nitration within GS was measured by using immunoprecipitation (IP)-WB. The immunoprecipitation analysis of tyrosine-nitrated GS was performed using an anti-nitrotyrosine antibody (ab61392, Abcam) and Protein A/G PLUS-Agarose (Santa Cruz) according to the manufacturer's protocol.

[2] = system: high-fat diet C57BL/6 mice
Procedure: Three-week-old male C57BL/6 mice were purchased from Koatech and housed in the animal facility under controlled conditions of temperature (22±2° C.), humidity (50±5%), and a 12-hour light-dark cycle. Two mice were housed per a cage. […] The mice were maintained on their respective diets for a duration of 17 weeks.
With an interval of one week, the body weight and food intake of each animal were measured. Additionally, at 1, 5, or 8 weeks after the start of the experiment, fasting blood glucose level was measured using an Accu-Check glucose meter.
At 15 weeks after the start of the test, a glucose tolerance test (GTT) was performed, and at 16 weeks, an insulin tolerance test (ITT) was carried out. For the
GTT, after a 12-hour fasting period, a glucose solution of 2 g/kg was administered through intraperitoneal injection, and blood samples were collected from the vein at 0, 20, 60, 90, and 120 minutes to measure blood glucose level. For the ITT, after a 6-hour fasting period, insulin at a dose of 0.75 U/kg was administered through intraperitoneal injection, and blood samples were collected from the vein at 0, 15, 30, 60, and 120 minutes to measure blood glucose level.
The urine volume (ml) was measured by collecting urine from the metabolic cages over a 16-hour period, and the fat mass was measured for each mouse using the EchoMRITM device and expressed as a percentage (%) of body weight.
The insulin concentration was measured using an ELISA kit (Crystal Chem, Ultra-Sensitive Mouse Insulin ELISA Kit), and the alanine aminotransferase (ALT) concentration was measured using an assay kit (IVD Lab Co., ChemiLab GPT (ALT) assay kit). Additionally, the concentration of reactive oxygen species/reactive nitrogen species (ROS/RNS) was measured by using an assay kit (Cell Biolabs, Inc., OxiSelect™ In Vitro ROS/RNS Assay Kit).
After anesthesia, liver tissues were dissected and rapidly frozen in liquid nitrogen. Some tissues were fixed in 10% formalin, and 5 μm-thick tissue slides were prepared from paraffin blocks. The tissues were then stained with H&E (hematoxylin and eosin) and observed under a microscope (Olympus, CKX41) for imaging.
A decrease in insulin receptor in muscles in metabolic disorders reduces the sensitivity to insulin signal, thus limiting the ability to utilize glucose in the muscles to cause sarcopenia. The liver tissue was homogenized in RIPA buffer, and protein quantification was performed using the BCA method. Western blot analysis was then conducted using an anti-insulin receptor-beta (IRβ) antibody.
It is known that a decrease in renal function leads to an increase in the concentration of albumin and a decrease in creatinine in urine. Therefore, the albumin and creatinine levels in urine were measured using mouse albumin ELISA kit (Abcam) and creatinine assay kit (Abcam), respectively, in each test animal. The albumin/creatinine ratio was then calculated. Additionally, 10 μL of blood plasma or 40 mg of homogenized liver tissue were subjected to centrifugation at 10,000 g for 10 minutes, and the supernatant was separated to measure the triglycerides (TG) level in plasma or liver by using a triglyceride measurement kit (Cayman).

[3] = system: glutamatergic neurons of 3xTG-vGluT2-Cre::tdTomato mice; experiment: sEPSC of glutamatergic neurons in mPFC of fluorescent labeled Alzheimer's disease model; assay type: in vivo, mouse; settings: 1xYQ diet from 2 months, measured at 6 to 8 months
Procedure: At two months of age, 3xTG-vGluT2-Cre::tdTomato mice were fed with diet supplemented with tyrosine-containing peptide (1xYQ). At 6 to 8 months of age, the spontaneous excitatory postsynaptic current (sEPSC) was measured to evaluate the activity of glutamatergic neurons. For recording membrane currents, a 200 μm-thick brain cross-section was placed in a recording chamber filled with artificial cerebrospinal fluid at a rate of 1.5 to 2 ml/min, and, under a holding potential of −70 mV, whole-cell voltage clamp recordings were obtained from visually identified glutamatergic neurons in the medial prefrontal cortex (mPFC). Glutamatergic currents were isolated by the addition of picrotoxin (100 μM). All recordings were performed at 30±2° C., and, as the pipette solution, a solution containing 30 mM KCl, 5 mM CaCl2, 10 mM EGTA, 10 mM HEPES, 2 mM MgATP, 0.5 mM Na2GTP, and 5 mM phosphocreatine was used.

[4] = system: chronic immobilization stress C57BL/6 mice; settings: stress group, peptide diet vs normal diet
Procedure: A total of 28 male C57BL/6 mice at 7 weeks of age were divided into two groups: a control group (CTL) and a stress group (STR). The stress group was subjected to chronic immobilization stress for 15 days. Specifically, each mouse in the stress group was individually placed in a restrainer for 2 hours daily from […] to induce chronic immobilization stress. The control group (CTL) and stress group (STR) were further classified based on their diets. […] After the completion of the 15-day chronic immobilization stress, the mice were subjected to a sucrose preference test (SPT). Blood samples and prefrontal cortex (PFC) tissues were collected from the mice for subsequent test.
For the analysis of anti-depressive effect, blood and PFC tissues were collected from mice that underwent chronic immobilization stress. The blood collected from mice was centrifuged at 1,000×g for 10 minutes at 4° C. to separate the plasma, and the supernatant was collected and diluted 1/20 with PBS to prepare a sample. The corticosterone concentration in the plasma was then measured using the Corticosterone EIA kit (Cayman) by following the manufacturer's instructions.
In addition, the plasma diluted with PBS at a ⅓ ratio and the PFC tissue lysate (50 μg) were prepared. The ROS/RNS (reactive oxygen species/reactive nitrogen species) level in the plasma and PFC tissues was measured using the ROS/RNS assay kit (Cell Biolabs) according to the manufacturer's instructions.
In addition, the depression was evaluated by measuring the sucrose preference of mice that had undergone 15 days of chronic immobilization stress. The sucrose preference test was conducted over a total of 4 days. Equal amounts of 0.1 M sucrose solution and water were provided in identical bottles of the same size and shape. On the first day, mice were given access to 0.1 M sucrose solution and water for 24 hours. On the second day, the positions of the sucrose solution and water bottles were switched, and mice were given access for 24 hours. On the third day, no sucrose solution or water was provided. On the fourth day, mice were again given access to equal amounts of 0.1 M sucrose solution and water for 3 hours, the positions were then switched, and access was provided for another 3 hours. The amount of sucrose solution and water consumed during the 6-hour period on the fourth day was measured, and the sucrose preference (%) was calculated according to the following formula.
Sucrose preference (%)=Sucrose intake amount/(Water intake amount+Sucrose intake amount)×100

Which results are given for tyrosine-glutamine [YQ]?
tyrosine nitration level of GS ([1]; IP-WB, peptide diet vs normal diet): statistically significant decrease; GS activity ([1]; peptide diet (330 mg/kg) vs normal diet): statistically significant increase; fasting blood glucose level ([2]; HFD+1xYQ vs HFD, 1, 5 or 8 weeks): decrease in blood glucose level; body weight ([2]; HFD+3xYQ vs HFD): lower body weight; fat mass ([2]; HFD+3xYQ vs HFD): decrease; fasting blood glucose level ([2]; HFD+3xYQ vs HFD, 1, 5 or 8 weeks): decrease in blood glucose level; blood glucose level, glucose tolerance test (GTT) ([2]; HFD+3xYQ vs HFD, 15 weeks): decrease in blood glucose level; urine volume ([2]; HFD+3xYQ vs HFD, 16-hour collection): decrease; blood glucose level, insulin tolerance test (ITT) ([2]; HFD+3xYQ vs HFD, 16 weeks): decrease in blood glucose level; expression level of IRβ ([2]; liver tissue, Western blot, HFD+3xYQ vs HFD): increase; glutamatergic neuronal activity (sEPSC) [3]: increased; ROS/RNS level in PFC tissue [4]: decreased; sucrose preference [4]: increased
